From patent publication US20240059698A1 (Accutar Biotechnology Inc., priority 2022, published 2024)

Assays:
Assay type in all cases: cell-based
[1] = tested on: HCC827-ASV cells (human EGFR exon 20 insertion mutant V769_D770insASV); test: Cell growth inhibition (CellTiter-Glo), HCC827-ASV; conditions: 72 h, HCC827-ASV cells, 3 days, CellTiter-Glo, read-out: Cell growth inhibition, GI50 (nM) HCC827-ASV
Procedure: Generation of HCC827-SVD, HCC827-ASV, and HCC827-YVMA cell lines. The HCC827-SVD cell line was generated by first transducing HCC827 cells (ATCC) with lentiviral particles expressing codon-optimized human EGFR exon 20 insertion mutant D770_N771insSVD, and then selecting under 5 µg/mL puromycin treatment for a week. The resulting cells were further transduced with lentiviral particles carrying EGFR sgRNA and CAS9 to knockout the endogenous alleles of EGER and then selected under 500 µg/mL hygromycin B treatment for two weeks. The limiting dilution approach was used to subsequently generate the single clone of the HCC827-SVD stable cell line. Endogenous EGFR knockout was confirmed by Sanger sequencing of cell genomic DNA, and expression of exogenous mutant EGFR was verified by Western blot analysis.
HCC827-ASV and HCC827-YVMA cell lines were generated in a similar approach as HCC827-SVD, except that HCC827 cells (ATCC) were first transduced with lentiviral particles expressing codon-optimized human EGFR exon 20 insertion mutant V769_D770insASV and human ERBB2 exon20 insertion mutant A775_G776ins YVMA, respectively.
2. Cell Growth Inhibition for HCC827, HCC827-SVD, HCC827-ASV, HCC827-YVMA, and A431.
HCC827(ATCC), HCC827-SVD, HCC827-ASV, and HCC827-YVMA cells were seeded in 96-well plates at 5000 cells/well in 90 μL of RPMI growth medium containing 10% FBS and 1% Penicillin Streptomycin. A431 (ATCC) cells were seeded in 96-well plates at 5000 cells/well in 90 μL of DMEM growth medium containing 10% FBS and 1% Penicillin Streptomycin. Cells were incubated at 37° C. overnight and then administered with 10 μL 10× test compounds prepared in the growth medium at various concentrations. After administration of the compounds, cells were incubated at 37° C. for 3 days. Before the CellTiter-Glo assay, the plates were equilibrated at room temperature for approximately 30 minutes. 100 ul of CellTiter-Glo reagent (Promega) was added to each well. The plates were then incubated at room temperature for 10 minutes and luminescence was recorded by the EnSight® multimode plate reader (PerkinElmer). Table 7 listed selected compounds in cellular growth assay.

A431 cells = test: Cell growth inhibition (CellTiter-Glo), A431; conditions: Homo sapiens, A-431, 72 h, 3 days
How it was run: (§1)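 HCC827 cells in RPMI and A431 cells in DMEM (both 10% FBS) were seeded at 5000 cells/well and left overnight. They were then exposed to compound dilutions for 3 days at 37° C. Viability was read by CellTiter-Glo luminescence.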

[2] = tested on: HCC827-SVD cells (human EGFR exon 20 insertion mutant D770_N771insSVD); test: Cell growth inhibition (CellTiter-Glo), HCC827-SVD; conditions: 72 h, 3 days
How it was run: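 HCC827 cells with endogenous EGFR knocked out and lentivirally expressing the insertion mutant (single clone) were seeded at 5000 cells/well in RPMI with 10% FBS. After overnight, compounds added; 3 days at 37 °C, then CellTiter-Glo luminescence.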

[3] = tested on: HCC827-YVMA cells (human ERBB2 exon20 insertion mutant A775_G776ins YVMA); test: Cell growth inhibition (CellTiter-Glo), HCC827-YVMA; conditions: 72 h, HCC827-YVMA cells, 3 days, CellTiter-Glo, read-out: Cell growth inhibition, GI50 (nM) HCC827-YVMA
How it was run: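 HCC827 cells transduced with lentiviral codon-optimized mutant (ERBB2 A775_G776insYVMA or EGFR V769_D770insASV), endogenous EGFR knocked out by CRISPR, single clone selected. Cells seeded overnight in RPMI/10% FBS, then exposed to serially diluted compounds at 37 °C for 3 days; viability read by CellTiter-Glo luminescence.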

HCC827 cells = test: Cell growth inhibition (CellTiter-Glo), HCC827; conditions: Homo sapiens, 72 h, 3 days
How it was run: as §1

| Compound | GI50 [1] | GI50 (A431 cells) | GI50 [2] | GI50 [3] | GI50 (HCC827 cells) |
| --- | --- | --- | --- | --- | --- |
| C=CC(=O)N1CCC(c2n[nH]c3ncnc(Nc4ccc(OCc5ccccn5)c(Cl)c4)c23)CC1 [Compound 166, 1-(4-(4-((3-chloro-4-(pyridin-2-ylmethoxy)phenyl)amino)-1H-pyrazolo[3,4-d]pyrimidin-3-yl)piperidin-1-yl)prop-2-en-1-one] | < 50 nM | < 50 nM | < 50 nM | < 50 nM | < 50 nM |
| C=CC(=O)N1CCC(c2n[nH]c3ncnc(Nc4ccc(Oc5ccnc(N6C[C@@H](C)O[C@@H](C)C6)c5)cc4F)c23)CC1 [Compound 167, 1-(4-(4-((4-((2-((2R,6S)-2,6-dimethylmorpholino)pyridin-4-yl)oxy)-2-fluorophenyl)amino)-1H-pyrazolo[3,4-d]pyrimidin-3-yl)piperidin-1-yl)prop-2-en-1-one] | 50 to 200 nM | > 1000 nM | 50 to 200 nM | 50 to 200 nM | > 1000 nM |
| C=CC(=O)N1CCC(c2n[nH]c3ncnc(Nc4ccc(Oc5ccnc(N6CCC(C(F)(F)F)C6)c5)cc4F)c23)CC1 (stereo not shown) [Compound 173, 1-(4-(4-((2-fluoro-4-((2-(3-(trifluoromethyl)pyrrolidin-1-yl)pyridin-4-yl)oxy)phenyl)amino)-1H-pyrazolo[3,4-d]pyrimidin-3-yl)piperidin-1-yl)prop-2-en-1-one] | < 50 nM | > 1000 nM | 50 to 200 nM | < 50 nM | 200 to 1000 nM |
| C=CC(=O)N1CCC(c2n[nH]c3ncnc(Nc4ccc(Oc5ccnc(N6CCC(F)(F)C6)c5)cc4F)c23)CC1 [Compound 175, 1-(4-(4-((4-((2-(3,3-difluoropyrrolidin-1-yl)pyridin-4-yl)oxy)-2-fluorophenyl)amino)-1H-pyrazolo[3,4-d]pyrimidin-3-yl)piperidin-1-yl)prop-2-en-1-one] | 50 to 200 nM | > 1000 nM | 50 to 200 nM | 50 to 200 nM | > 1000 nM |
| C=CC(=O)N1CCC(c2n[nH]c3ncnc(Nc4ccc(Oc5ccnc(N6CC(O)(C(F)(F)F)C6)c5)cc4F)c23)CC1 [Compound 177, 1-(4-(4-((2-fluoro-4-((2-(3-hydroxy-3-(trifluoromethyl)azetidin-1-yl)pyridin-4-yl)oxy)phenyl)amino)-1H-pyrazolo[3,4-d]pyrimidin-3-yl)piperidin-1-yl)prop-2-en-1-one] | 200 to 1000 nM | > 1000 nM | 200 to 1000 nM | 50 to 200 nM | > 1000 nM |
| C=CC(=O)N1CCC(c2n[nH]c3ncnc(Nc4ccc(Oc5ccnc(N6CC7CC7C6)c5)cc4F)c23)CC1 (stereo not shown) [Compound 180, 1-(4-(4-((4-((2-(3-azabicyclo[3.1.0]hexan-3-yl)pyridin-4-yl)oxy)-2-fluorophenyl)amino)-1H-pyrazolo[3,4-d]pyrimidin-3-yl)piperidin-1-yl)prop-2-en-1-one] | 50 to 200 nM | > 1000 nM | 50 to 200 nM | < 50 nM | 200 to 1000 nM |

Now from value to molecule:

| GI50 [1] | GI50 (A431 cells) | GI50 [2] | GI50 [3] | GI50 (HCC827 cells) | Compound |
| --- | --- | --- | --- | --- | --- |
| > 1000 nM | > 1000 nM | > 1000 nM | 200 to 1000 nM | > 1000 nM | C=CC(=O)N1CCC(c2ccn3ncnc(Nc4ccc(Oc5ccn(Cc6cc(C)ccn6)n5)cc4F)c23)CC1 [Compound 197, 1-(4-(4-((2-fluoro-4-((1-((4-methylpyridin-2-yl)methyl)-1H-pyrazol-3-yl)oxy)phenyl)amino)pyrrolo[2,1-f][1,2,4]triazin-5-yl)piperidin-1-yl)prop-2-en-1-one] |
| < 50 nM | < 50 nM | < 50 nM | < 50 nM | < 50 nM | C=CC(=O)N1CCC(c2ccn3ncnc(Nc4ccc(OCc5ccccn5)c(Cl)c4)c23)CC1 [Compound 198, 1-(4-(4-((3-chloro-4-(pyridin-2-ylmethoxy)phenyl)amino)pyrrolo[2,1-f][1,2,4]triazin-5-yl)piperidin-1-yl)prop-2-en-1-one] |
| < 50 nM | > 1000 nM | < 50 nM | < 50 nM | 50 to 200 nM | C=CC(=O)N1CCC(c2ccn3ncnc(Nc4ccc(Oc5ccnc(N6C[C@@H](C)O[C@@H](C)C6)c5)cc4F)c23)CC1 [Compound 199, 1-(4-(4-((4-((2-((2R,6S)-2,6-dimethylmorpholino)pyridin-4-yl)oxy)-2-fluorophenyl)amino)pyrrolo[2,1-f][1,2,4]triazin-5-yl)piperidin-1-yl)prop-2-en-1-one] |
| > 1000 nM | > 1000 nM | > 1000 nM | 200 to 1000 nM | > 1000 nM | C=CC(=O)N1CCC(c2ccn3ncnc(Nc4ccc(Oc5ccnc(N6CCN(C)CC6)c5)cc4F)c23)CC1 [Compound 201, 1-(4-(4-((2-fluoro-4-((2-(4-methylpiperazin-1-yl)pyridin-4-yl)oxy)phenyl)amino)pyrrolo[2,1-f][1,2,4]triazin-5-yl)piperidin-1-yl)prop-2-en-1-one] |
| 200 to 1000 nM | > 1000 nM | 50 to 200 nM | 50 to 200 nM | > 1000 nM | C=CC(=O)N1CCC(c2ccn3ncnc(Nc4ccc(Oc5ccnc(N6CCC[C@@H](OC)C6)c5)cc4F)c23)CC1 [Compound 202, (R)-1-(4-(4-((2-fluoro-4-((2-(3-methoxypiperidin-1-yl)pyridin-4-yl)oxy)phenyl)amino)pyrrolo[2,1-f][1,2,4]triazin-5-yl)piperidin-1-yl)prop-2-en-1-one] |
